Marks after values point to notes of the source that are not given here. Values belong to the compound of their own block, whether it stands above or below them.
Assays:
[1] = target: PDE4D3 (Homo sapiens, UniProt Q08499); experiment: PDE4D3 enzyme inhibition (IMAP); type: biochemical; conditions: for PDE4D3 % inib at 10 μM: in duplicate; for IC50: five concentrations 10^−8-10^−4 M
Experimental: (§1) Compound's evaluation on PDE4D3, PDE4A4, PDE4B2 and PDE4C2 enzyme assays were performed by Scottish Biomedical (Glasgow, Scotland, UK) using recombinant human PDE enzymes expressed in a baculoviral system. The preliminary screening assays were performed by the IMAP technology (Molecular Devices), which is based on the high affinity binding of phosphate by immobilized metal coordination complexes on nanoparticles. The binding reagent complexes with phosphate groups on nucleotide monophosphate generated from cyclic nucleotides (cAMP) through phosphodiesterases. With fluorescence polarization detection, binding causes a change in the rate of the molecular motion of the phosphate bearing molecule and results in an increase in the fluorescence polarization value observed for the fluorescent label attached to the substrate. […] All compounds were solved in DMSO at 10^−2 M concentration and then diluted with water to the final suitable concentrations. All synthesized compounds were tested preliminary on PDE4D3 at 10^−5 M concentration, in duplicate. Results are expressed as a percent inhibition of control activity (see table 1).
IC50 values are reported at μM concentration in table 1. […] The results are reported (as percent of inhibition at 10 μM concentration) in Table 1.

[2] = target: PDE4A4 (Homo sapiens, UniProt P27815); experiment: PDE4A4 enzyme inhibition (IMAP); type: biochemical
Experimental: as §1
(§2) The IC50 values obtained for the reference compounds are within accepted limits of historic averages obtained (0.5 log unit). IC50 values are reported at μM concentration in table 1. […] The results are reported (as percent of inhibition at 10 μM concentration) in Table 1.

[3] = target: T1, PDE4B2 (Homo sapiens, UniProt Q07343); experiment: PDE4B2 enzyme inhibition (IMAP); type: biochemical
T1 construct: purchased Scottish Biomedical (Glasgow, Scotland, UK); host or cells: baculoviral system
Experimental: as §1, §2

[4] = target: T2, PDE4C2 (Homo sapiens, UniProt Q08493); experiment: PDE4C2 enzyme inhibition (IMAP); type: biochemical
T2 construct: purchased Scottish Biomedical (Glasgow, Scotland, UK); host or cells: baculoviral system
Experimental: as §1, §2

[5] = target: PDE4D1 (Homo sapiens, UniProt Q08499); experiment: PDE4D1 enzyme inhibition (IMAP); type: biochemical
[6] = target: PDE4D2 (Homo sapiens, UniProt Q08499); experiment: PDE4D2 enzyme inhibition (IMAP); type: biochemical
[7] = Cytotoxicity, lactate-dehydrogenase release; type: cell-based; conditions: human, HTLA human neuronal cells
Experimental: To evaluate the preliminary toxic profile of the molecule XVIIIa, we performed cytotoxicity and genotoxicity assays on human neuronal cells (HTLA). For the cytotoxic potential, we analyzed the lactate-dehydrogenase release in cells exposed for 24 hours to high concentrations (100 μM) of XVIIIa or GEBR-7b (lead compound—Bruno et al, Br. J. Pharm., 2011, 164:2054).

[8] = test system: HTLA cells; experiment: Genotoxicity, Western blot of γ-H2AX; type: cell-based, human; conditions: 100 μM
From the text: To evaluate the genotoxic potential of XVIIIa and GEBR-7b, we analyzed the phosphorylation of the chromatin-bound histone H2AX (γ-H2AX), which is a quantitative marker for the DNA damage response at the site of double-strand breaks.
The H2AX signal represents the internal loading control.

[9] = test system: spatial object memory performance; experiment: OLT dose-response experiment; type: in vivo; conditions: for d2 (discrimination performance): 24 h interval, mean (SEM)
[10] = test system: spatial working memory; experiment: Y-maze continuous alternation task; type: in vivo; conditions: y-maze 6 min, vehicle 60.36
Experimental: Working memory function is given by the percentage of alternations made while exploring the y-maze for 6 min. No animals were excluded from the statistical analysis.
One-sample t-tests were performed to compare every condition to 50% alternations, i.e. chance level. […] FIG. 7 gives a graphical overview of the Y-maze alternation performance.

[11] = test system: α2-adrenoceptor-mediated anesthesia; experiment: Ketamine/xylazine induced α2-adrenoceptor-mediated anesthesia test (emesis surrogate); type: in vivo, mice; conditions: for Time anesthetized: relative to vehicle (set at 100%)
Experimental: A shorter anesthesia time than that of the vehicle condition would implicate emetic-like effects. Anesthesia time was calculated relatively to the vehicle condition, which itself was set at 100%, to control for repeated exposure to the test.

[12] = test system: forskolin (FSK)-induced cAMP in neuronal cultured cells; experiment: In vitro cAMP-enhancing potential (EIA); conditions: 100 μM, without FSK
[13] = Pharmacokinetic analysis, plasma and brain; conditions: male BALB/c mice, 10 mg/kg subcutaneously

PDE4A4, sequence (P27815 whole entry): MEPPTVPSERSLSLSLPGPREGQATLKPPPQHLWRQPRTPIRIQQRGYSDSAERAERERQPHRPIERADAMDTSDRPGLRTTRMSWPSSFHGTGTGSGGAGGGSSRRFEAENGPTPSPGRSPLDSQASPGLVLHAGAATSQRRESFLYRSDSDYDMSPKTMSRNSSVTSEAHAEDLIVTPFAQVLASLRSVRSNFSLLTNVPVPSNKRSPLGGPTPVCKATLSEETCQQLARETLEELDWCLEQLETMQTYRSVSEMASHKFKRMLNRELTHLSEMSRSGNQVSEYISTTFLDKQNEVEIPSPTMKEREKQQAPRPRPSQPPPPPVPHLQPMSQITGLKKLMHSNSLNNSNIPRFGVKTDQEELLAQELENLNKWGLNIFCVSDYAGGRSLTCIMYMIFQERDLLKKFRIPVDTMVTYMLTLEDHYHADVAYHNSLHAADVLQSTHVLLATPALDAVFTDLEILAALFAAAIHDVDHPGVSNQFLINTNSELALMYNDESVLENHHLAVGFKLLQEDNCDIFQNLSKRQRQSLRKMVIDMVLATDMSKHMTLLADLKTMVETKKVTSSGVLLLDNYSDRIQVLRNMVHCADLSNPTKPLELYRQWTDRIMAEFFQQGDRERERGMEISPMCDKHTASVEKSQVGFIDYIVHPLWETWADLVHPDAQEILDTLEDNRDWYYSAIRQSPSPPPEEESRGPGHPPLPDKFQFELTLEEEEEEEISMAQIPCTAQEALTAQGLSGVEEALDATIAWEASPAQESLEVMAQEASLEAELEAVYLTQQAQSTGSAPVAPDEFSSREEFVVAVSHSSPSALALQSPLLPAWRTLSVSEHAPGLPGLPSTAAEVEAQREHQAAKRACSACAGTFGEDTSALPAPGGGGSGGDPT
PDE4D1, sequence (Q08499 1-584 isoform Q08499-4): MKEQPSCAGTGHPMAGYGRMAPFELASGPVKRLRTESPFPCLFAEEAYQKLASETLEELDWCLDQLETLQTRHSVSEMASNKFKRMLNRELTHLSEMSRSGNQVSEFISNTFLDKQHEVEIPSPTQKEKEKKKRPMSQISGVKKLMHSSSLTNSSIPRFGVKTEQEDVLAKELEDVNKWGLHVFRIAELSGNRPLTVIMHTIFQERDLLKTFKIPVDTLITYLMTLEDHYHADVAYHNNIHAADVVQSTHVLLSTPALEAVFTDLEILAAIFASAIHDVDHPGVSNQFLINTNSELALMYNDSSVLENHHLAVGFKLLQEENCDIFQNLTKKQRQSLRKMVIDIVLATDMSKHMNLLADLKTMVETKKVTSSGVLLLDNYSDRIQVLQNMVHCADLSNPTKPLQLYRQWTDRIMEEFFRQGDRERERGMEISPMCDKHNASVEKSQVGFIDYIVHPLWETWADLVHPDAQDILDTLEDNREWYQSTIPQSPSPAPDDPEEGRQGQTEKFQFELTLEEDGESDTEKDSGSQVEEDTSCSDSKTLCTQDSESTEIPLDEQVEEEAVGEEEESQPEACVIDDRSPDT
T1 sequence (Q07343 1-564 isoform Q07343-2): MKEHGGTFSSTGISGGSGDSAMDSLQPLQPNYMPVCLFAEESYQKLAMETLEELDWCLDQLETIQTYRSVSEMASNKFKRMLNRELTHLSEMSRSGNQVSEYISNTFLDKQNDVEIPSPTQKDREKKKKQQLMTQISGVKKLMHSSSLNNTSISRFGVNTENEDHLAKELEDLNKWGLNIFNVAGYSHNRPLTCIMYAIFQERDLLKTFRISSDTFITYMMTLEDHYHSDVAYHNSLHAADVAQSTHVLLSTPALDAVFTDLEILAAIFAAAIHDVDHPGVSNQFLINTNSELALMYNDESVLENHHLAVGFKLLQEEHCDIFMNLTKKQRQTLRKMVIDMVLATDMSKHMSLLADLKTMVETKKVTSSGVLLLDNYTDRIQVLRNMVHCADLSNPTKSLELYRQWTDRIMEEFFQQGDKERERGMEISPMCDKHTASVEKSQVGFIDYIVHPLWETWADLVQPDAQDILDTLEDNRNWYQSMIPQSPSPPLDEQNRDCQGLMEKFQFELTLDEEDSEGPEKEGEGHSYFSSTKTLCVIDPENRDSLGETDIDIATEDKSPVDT
PDE4D3, sequence (Q08499 1-673 isoform Q08499-2): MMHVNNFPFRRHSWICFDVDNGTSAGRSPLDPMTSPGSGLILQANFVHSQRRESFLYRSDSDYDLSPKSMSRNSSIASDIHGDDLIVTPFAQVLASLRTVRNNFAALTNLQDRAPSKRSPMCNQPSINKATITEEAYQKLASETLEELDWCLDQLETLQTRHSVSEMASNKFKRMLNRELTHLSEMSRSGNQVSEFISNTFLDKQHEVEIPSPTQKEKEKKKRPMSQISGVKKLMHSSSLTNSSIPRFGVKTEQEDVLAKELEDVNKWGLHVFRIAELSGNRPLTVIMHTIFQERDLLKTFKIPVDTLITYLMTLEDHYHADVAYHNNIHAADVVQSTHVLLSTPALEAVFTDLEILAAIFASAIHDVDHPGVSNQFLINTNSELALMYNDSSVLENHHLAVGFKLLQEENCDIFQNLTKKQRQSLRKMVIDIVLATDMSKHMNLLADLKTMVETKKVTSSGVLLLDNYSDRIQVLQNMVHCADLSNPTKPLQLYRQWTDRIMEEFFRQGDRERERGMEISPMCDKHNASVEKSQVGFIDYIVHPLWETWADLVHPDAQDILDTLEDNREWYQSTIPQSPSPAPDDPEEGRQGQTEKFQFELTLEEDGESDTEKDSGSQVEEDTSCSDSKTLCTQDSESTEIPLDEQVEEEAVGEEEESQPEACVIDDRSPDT
PDE4D2, sequence (Q08499 303-809 limits assumed): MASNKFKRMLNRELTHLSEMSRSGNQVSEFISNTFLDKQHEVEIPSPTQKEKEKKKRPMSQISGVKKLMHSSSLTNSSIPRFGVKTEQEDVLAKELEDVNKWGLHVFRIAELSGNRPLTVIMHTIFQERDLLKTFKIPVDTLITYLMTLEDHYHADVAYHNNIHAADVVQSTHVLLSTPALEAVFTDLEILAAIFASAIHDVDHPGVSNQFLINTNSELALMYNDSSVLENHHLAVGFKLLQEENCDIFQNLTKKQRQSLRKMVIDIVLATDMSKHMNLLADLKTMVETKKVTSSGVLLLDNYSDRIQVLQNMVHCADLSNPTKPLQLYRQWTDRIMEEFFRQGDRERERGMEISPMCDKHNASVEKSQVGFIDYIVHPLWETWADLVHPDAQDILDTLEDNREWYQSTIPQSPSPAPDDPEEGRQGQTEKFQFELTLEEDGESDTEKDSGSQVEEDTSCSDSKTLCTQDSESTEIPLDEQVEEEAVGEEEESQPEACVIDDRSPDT
T2 sequence (Q08493 107-712): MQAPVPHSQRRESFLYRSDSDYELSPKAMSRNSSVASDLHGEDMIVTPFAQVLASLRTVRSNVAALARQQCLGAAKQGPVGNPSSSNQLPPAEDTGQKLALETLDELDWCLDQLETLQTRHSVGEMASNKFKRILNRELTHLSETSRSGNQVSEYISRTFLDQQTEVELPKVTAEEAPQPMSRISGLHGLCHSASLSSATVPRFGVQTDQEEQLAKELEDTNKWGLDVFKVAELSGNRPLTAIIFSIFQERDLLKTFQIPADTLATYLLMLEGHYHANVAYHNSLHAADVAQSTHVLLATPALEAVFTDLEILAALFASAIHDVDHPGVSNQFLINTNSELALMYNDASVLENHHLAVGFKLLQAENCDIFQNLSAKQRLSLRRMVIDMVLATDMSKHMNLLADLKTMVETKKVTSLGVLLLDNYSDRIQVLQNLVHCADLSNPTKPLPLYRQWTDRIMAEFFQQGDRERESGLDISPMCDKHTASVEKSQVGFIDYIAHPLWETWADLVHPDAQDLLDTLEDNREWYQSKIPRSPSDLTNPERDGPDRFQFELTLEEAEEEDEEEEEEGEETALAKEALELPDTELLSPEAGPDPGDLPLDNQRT

Compound: COc1ccc(C2=NOC(CC(=O)N(CCO)CCO)C2)cc1OC1CCCC1 (stereo not shown) [XIVg, 2-{3-[3-(Cyclopentyloxy)-4-methoxyphenyl]-4,5-dihydroisoxazol-5-yl}-N,N-bis(2-hydroxyethyl)acetamide]
PDE4D3 % inib at 10 μM [1]: 65%
IC50 [1]: 1110 nM
PDE4A4 % inib at 10 μM [2]: 69%
PDE4B2 % inib at 10 μM [3]: 68%
PDE4C2 % inib at 10 μM [4]: 40%
melting point: 136 to 138 °C

Compound: COc1ccc(-c2ccn(CC(O)CN3CC(C)OC(C)C3)n2)cc1OC1CCCC1 (stereo not shown) [XVIIIb, 1-{3-[3-(Cyclopentyloxy)-4-methoxyphenyl]-1H-pyrazol-1-yl}-3-(2,6-dimethylmorpholin-4-yl)propan-2-ol dihydrocloride]
PDE4D1 % inib at 10 μM [5]: 77%
PDE4D2 % inib at 10 μM [6]: 75%
PDE4D3 % inib at 10 μM [1]: 78%
IC50 [1]: 6000 nM
IC50 [2]: 120 nM
PDE4A4 % inib at 10 μM [2]: 52%
IC50 [3]: 460 nM
PDE4B2 % inib at 10 μM [3]: 53.0%
PDE4C2 % inib at 10 μM [4]: 45%

Compound: OC(CN1CCOCC1)Cn1ccc(-c2ccc(OC(F)F)c(OC3CCCC3)c2)n1 (stereo not shown) [XXIIa, 1-{3-[3-(cyclopentyloxy)-4-(difluoromethoxy)phenyl]-1H-pyrazol-1-yl}-3-morpholin-4-ylpropan-2-ol]
PDE4A4 % inib at 10 μM [2]: 11%
PDE4B2 % inib at 10 μM [3]: 26%
cytotoxicity at 24 h, 100 µM [7]: 0.1 ± 0.36%
DNA damage (γ-H2AX) [8]: not observed
d2 (discrimination performance) ([9]; 0.0003 mg/kg): 0.02 (0.05)
d2 (discrimination performance) ([9]; 0.001 mg/kg): 0.06 (0.05)
memory function (OLT) ([9]; 0.003 mg/kg): fully enhance memory function
d2 (discrimination performance) ([9]; 0.003 mg/kg, p < 0.001 vs zero): 0.34 (0.05) ^###
d2 (discrimination performance) ([9]; 0.01 mg/kg): 0.05 (0.03)
memory improvement (OLT) ([9]; 0.0003, 0.001 and 0.01 mg/kg): did not show any memory improvement at all
Alternations % ([10]; 0.001 mg/kg): 60.86 ^### %
Alternations % ([10]; 0.003 mg/kg): 63.54 ^### %
Alternations % ([10]; 0.01 mg/kg): 61.88 ^### %
Time anesthetized ([11]; 0.003 mg/kg): 112.28%
Time anesthetized ([11]; 0.03 mg/kg): 109.52%
Time anesthetized ([11]; 0.3 mg/kg): 107.45%
emetic-like effects ([11]; 0.003-3.0 mg/kg, one-way ANOVA n.s.): does not have emetic-like effects
Time anesthetized ([11]; 3.0 mg/kg): 91.22%
basal cAMP levels [12]: without affecting the basal cAMP levels
AUC0-t ([13]; brain): 2330 ng·h/g
t1/2 ([13]; brain): 57 min
AUC0-t ([13]; plasma): 861 ng·h/mL
Cmax ([13]; plasma): 993 ng/mL
Tmax ([13]; plasma): 19.8 min

Compound: COc1ccc(-c2ccn(CC(=O)N3CCOCC3)n2)cc1OC1CCCC1 [XXa, 4-({3-[3-(Cyclopentyloxy)-4-methoxyphenyl]-1H-pyrazol-1-yl}acetyl)morpholine]
PDE4D1 % inib at 10 μM [5]: 42%
PDE4D2 % inib at 10 μM [6]: 23%
PDE4D3 % inib at 10 μM [1]: 27%
melting point: 131 to 132 °C

Results, then the compound that gave them:

PDE4D3 % inib at 10 μM [1]: 51%
IC50 [1]: 5580 nM
PDE4A4 % inib at 10 μM [2]: 45%
PDE4B2 % inib at 10 μM [3]: 27%
PDE4C2 % inib at 10 μM [4]: 23%
melting point: 104 to 105 °C
Compound: COc1ccc(C2=NOC(CC(=O)N3CC(C)OC(C)C3)C2)cc1OC1CCCC1 (stereo not shown) [XIVb, 4-({3-[3-(Cyclopentiloxy)-4-methoxyphenyl]-4,5-dihydroisoxazol-5-yl}acetil) 2,6-dimethylmorpholine]

PDE4D3 % inib at 10 μM [1]: 57%
IC50 [1]: 1220 nM
PDE4A4 % inib at 10 μM [2]: 66%
PDE4B2 % inib at 10 μM [3]: 59%
PDE4C2 % inib at 10 μM [4]: 47%
Compound: COc1ccc(C2=NOC(CC(=O)N3CCCC3)C2)cc1OC1CCCC1 (stereo not shown) [XIVd, 3-[3-(Cyclopentyloxy)-4-methoxyphenyl]-5-(2-oxo-2-pyrrolidin-1-ylethyl)-4,5-dihydroisoxazole]

PDE4D1 % inib at 10 μM [5]: 2%
PDE4D2 % inib at 10 μM [6]: 3%
PDE4D3 % inib at 10 μM [1]: 15%
PDE4A4 % inib at 10 μM [2]: 0%
PDE4B2 % inib at 10 μM [3]: 5%
PDE4C2 % inib at 10 μM [4]: 7%
melting point: 92 to 94 °C
Compound: COc1ccc(-c2cc(C(O)CN3CC(C)OC(C)C3)on2)cc1OC1CCCC1 (stereo not shown) [XVIb, 1-{3-[3-(Cyclopentyloxy)-4-methoxyphenyl]isoxazol-5-yl}-2-(2,6-dimethylmorpholin-4-yl)ethanol]

PDE4D3 % inib at 10 μM [1]: 53%
IC50 [1]: 1800 nM
PDE4A4 % inib at 10 μM [2]: 28%
PDE4B2 % inib at 10 μM [3]: 28%
PDE4C2 % inib at 10 μM [4]: 42%
Compound: COc1ccc(-c2ccn(CCC(=O)N3CC(C)OC(C)C3)n2)cc1OC1CCCC1 (stereo not shown) [XXIb, 4-(3-{3-[3-(cyclopentyloxy)-4-methoxyphenyl]-1H-pyrazol-1-yl}propanoyl)2,6-dimethylmorpholine]

PDE4D1 % inib at 10 μM [5]: 18%
PDE4D2 % inib at 10 μM [6]: 13%
PDE4D3 % inib at 10 μM [1]: 23%
melting point: 99 to 100 °C
Compound: COc1ccc(-c2ccn(CC(=O)N3CC(C)OC(C)C3)n2)cc1OC1CCCC1 (stereo not shown) [XXb, 4-({3-[3-(Cyclopentyloxy)-4-methoxyphenyl]-1H-pyrazol-1-yl}acetyl)2,6-dimethylmorpholine]

— patent US10017480B2, “Compounds having a selective PDE4D inhibiting activity” (UNIVERSITÂ DEGLI STUDI DI GENOVA, priority 2014, dated 2018)
